Key:
SOD1G93A mice = conditions: cited from earlier work
[1] = test system: nigro-striatal damage induced by 1-methyl-4-phenyl-1,2,3,6-tetrahydropyridine in mice; conditions: acute or repeated 0.25 or 3 mg/kg i.p.; tyrosine hydroxylase-positive neuron count; cited from earlier work
reserpine-treated rat = conditions: cited from earlier work
spinal cord GDNF levels = conditions: cited from earlier work
SMI-32+ motor neurons = conditions: abrogated by anti-GDNF antibodies; cited from earlier work
[2] = test system: GDNF mRNA and protein levels in the mouse brain; conditions: cited from earlier work
R6/2 mice = conditions: cited from earlier work
[3] = test system: cultured spinal cord astrocytes; conditions: wild-type and mGlu2 knockout mice, not mGlu3 knockout; cited from earlier work
[4] = test system: 6-OHDA lesioned nigrostriatal tract; conditions: cited from earlier work
cocaine-seeking in rats = conditions: systemic injections; cited from earlier work
cocaine craving = conditions: preliminary results in humans; cited from earlier work
Rat mGlu3 = target: T1, Rat mGlu3 (Rattus norvegicus, UniProt P31422); experiment: mGlu receptor in vitro assay (thallium flux through GIRK channels / calcium assay), rat mGlu3; assay type: cell-based; conditions: PAM potency with EC20 glutamate
T1 construct: expressed in transfected cells; host or cells: HEK-293 co-expressing GIRK channels
Outline: (§1)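 HEK-293 cells co-expressing rat mGlu2 or mGlu3 and GIRK, dye-loaded with FluoZin2-AM, compound added about 2.5 min before thallium buffer with EC20 glutamate; potency from the 5-15 s fluorescence slope, 10-point 4-parameter fit. Calcium assay at mGlu3 used TREx293 mGlu3 Gα15 cells induced with tetracycline 20 ng/mL for 20 h.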

Rat mGlu2 = target: T2, Rat mGlu2 (Rattus norvegicus, UniProt P31421); experiment: mGlu receptor in vitro assay, thallium flux through GIRK channels, rat mGlu2; assay type: cell-based; conditions: PAM potency with EC20 glutamate
T2 construct: expressed in transfected cells; host or cells: HEK-293 co-expressing GIRK channels
Outline: as §1

Human mGlu3 = Human mGlu3 (Homo sapiens, UniProt Q14832); experiment: mGlu receptor in vitro assay, human mGlu3; assay type: cell-based
Human mGlu2 = Human mGlu2 (Homo sapiens, UniProt Q14416); experiment: mGlu receptor in vitro assay, human mGlu2; assay type: cell-based
Sequence of Human mGlu2 (Q14416 19-872): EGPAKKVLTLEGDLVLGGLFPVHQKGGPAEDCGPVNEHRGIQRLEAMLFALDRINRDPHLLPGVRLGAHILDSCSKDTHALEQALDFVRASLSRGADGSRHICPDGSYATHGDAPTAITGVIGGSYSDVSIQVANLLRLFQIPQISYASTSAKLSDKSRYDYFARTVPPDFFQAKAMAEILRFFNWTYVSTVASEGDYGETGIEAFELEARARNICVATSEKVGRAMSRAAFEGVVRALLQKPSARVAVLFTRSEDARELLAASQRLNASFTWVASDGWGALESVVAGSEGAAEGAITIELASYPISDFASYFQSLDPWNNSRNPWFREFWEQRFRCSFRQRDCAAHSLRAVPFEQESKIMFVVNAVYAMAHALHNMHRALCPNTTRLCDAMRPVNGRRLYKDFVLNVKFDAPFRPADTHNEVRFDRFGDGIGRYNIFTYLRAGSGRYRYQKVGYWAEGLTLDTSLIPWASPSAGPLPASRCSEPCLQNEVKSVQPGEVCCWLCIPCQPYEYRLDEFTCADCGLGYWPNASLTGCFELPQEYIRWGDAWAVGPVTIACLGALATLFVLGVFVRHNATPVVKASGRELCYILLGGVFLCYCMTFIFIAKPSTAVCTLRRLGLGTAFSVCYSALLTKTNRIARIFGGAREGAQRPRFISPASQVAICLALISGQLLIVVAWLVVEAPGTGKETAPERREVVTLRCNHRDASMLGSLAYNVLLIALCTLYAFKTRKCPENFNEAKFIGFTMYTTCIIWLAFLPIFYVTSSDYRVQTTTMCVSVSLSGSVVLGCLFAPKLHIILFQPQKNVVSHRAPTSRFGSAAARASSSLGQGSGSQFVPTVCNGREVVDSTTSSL

T2 sequence (P31421 19-872): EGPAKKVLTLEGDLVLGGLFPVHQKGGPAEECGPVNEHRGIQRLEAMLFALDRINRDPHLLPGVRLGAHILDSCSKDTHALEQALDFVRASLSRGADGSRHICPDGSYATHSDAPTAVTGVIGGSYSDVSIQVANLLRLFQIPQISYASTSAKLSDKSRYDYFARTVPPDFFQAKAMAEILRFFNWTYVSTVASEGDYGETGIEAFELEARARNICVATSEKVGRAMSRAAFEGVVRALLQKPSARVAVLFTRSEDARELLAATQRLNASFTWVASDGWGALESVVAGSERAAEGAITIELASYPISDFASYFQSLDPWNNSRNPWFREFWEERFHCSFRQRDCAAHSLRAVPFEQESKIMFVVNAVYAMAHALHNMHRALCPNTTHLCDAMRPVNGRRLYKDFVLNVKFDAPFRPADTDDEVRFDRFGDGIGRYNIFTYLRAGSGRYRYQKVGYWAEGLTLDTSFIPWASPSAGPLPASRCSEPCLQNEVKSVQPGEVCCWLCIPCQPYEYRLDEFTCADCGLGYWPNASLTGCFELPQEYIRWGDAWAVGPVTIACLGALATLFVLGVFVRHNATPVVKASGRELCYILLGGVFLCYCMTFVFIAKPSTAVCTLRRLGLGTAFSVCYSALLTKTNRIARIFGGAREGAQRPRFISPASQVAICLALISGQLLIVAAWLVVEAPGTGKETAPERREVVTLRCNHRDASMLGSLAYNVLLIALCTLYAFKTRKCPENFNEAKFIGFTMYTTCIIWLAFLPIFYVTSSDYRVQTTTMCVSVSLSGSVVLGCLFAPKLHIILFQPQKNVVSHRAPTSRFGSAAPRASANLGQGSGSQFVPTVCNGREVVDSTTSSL
T1 sequence (P31422 23-879): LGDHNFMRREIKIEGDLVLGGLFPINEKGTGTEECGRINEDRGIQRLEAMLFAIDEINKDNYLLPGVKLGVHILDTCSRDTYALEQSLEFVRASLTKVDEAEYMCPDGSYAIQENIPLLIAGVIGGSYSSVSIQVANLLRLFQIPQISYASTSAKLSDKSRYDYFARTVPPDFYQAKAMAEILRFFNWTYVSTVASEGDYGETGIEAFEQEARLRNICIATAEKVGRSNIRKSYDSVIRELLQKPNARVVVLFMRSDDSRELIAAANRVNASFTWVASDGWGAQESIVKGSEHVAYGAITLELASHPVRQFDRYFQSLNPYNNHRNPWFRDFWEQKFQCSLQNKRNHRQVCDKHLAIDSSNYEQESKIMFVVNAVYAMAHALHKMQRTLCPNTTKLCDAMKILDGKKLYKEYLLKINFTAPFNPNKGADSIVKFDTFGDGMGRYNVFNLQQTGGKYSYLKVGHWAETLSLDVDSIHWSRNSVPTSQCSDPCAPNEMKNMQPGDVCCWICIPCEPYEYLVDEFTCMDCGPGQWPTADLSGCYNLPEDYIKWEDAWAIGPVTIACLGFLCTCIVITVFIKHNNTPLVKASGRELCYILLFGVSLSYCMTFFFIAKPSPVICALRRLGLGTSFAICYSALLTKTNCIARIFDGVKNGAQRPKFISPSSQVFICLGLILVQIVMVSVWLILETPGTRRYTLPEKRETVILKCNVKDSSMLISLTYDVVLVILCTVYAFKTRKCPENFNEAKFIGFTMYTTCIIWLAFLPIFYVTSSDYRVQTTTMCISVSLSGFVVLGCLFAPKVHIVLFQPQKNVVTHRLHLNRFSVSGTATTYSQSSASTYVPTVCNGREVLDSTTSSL
Sequence of Human mGlu3 (Q14832 23-879): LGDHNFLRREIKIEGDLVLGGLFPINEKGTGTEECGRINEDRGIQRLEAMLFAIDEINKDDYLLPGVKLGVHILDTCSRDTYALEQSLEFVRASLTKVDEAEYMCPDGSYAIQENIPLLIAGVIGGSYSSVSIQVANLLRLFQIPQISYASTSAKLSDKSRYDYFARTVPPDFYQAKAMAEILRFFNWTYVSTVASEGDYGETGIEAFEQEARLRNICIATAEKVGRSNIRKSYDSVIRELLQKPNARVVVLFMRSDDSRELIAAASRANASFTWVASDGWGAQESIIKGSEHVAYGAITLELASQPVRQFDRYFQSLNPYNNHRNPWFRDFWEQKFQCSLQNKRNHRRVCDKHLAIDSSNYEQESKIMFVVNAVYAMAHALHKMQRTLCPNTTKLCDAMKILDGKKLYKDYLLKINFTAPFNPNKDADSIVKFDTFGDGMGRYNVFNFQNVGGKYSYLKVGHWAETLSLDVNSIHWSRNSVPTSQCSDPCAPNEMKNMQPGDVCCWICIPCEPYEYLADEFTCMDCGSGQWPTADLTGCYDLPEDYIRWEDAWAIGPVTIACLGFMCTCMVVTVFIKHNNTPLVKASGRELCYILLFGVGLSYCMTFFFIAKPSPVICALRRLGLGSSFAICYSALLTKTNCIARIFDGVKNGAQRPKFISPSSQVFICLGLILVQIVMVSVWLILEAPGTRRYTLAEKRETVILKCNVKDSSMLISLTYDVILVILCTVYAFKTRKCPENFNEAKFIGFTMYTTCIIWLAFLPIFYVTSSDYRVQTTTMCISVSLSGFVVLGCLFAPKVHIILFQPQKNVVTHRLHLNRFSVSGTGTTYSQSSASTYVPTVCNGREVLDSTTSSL

**Q.** For `N[C@@]1(C(=O)O)CO[C@H]2[C@H](C(=O)O)[C@H]21` [LY379268], which neurological disability (SOD1G93A mice; continuous treatment 1 or 5 mg/kg/day) is on record?
**A.** Its neurological disability is “beneficial effect on neurological disability”.

**Q.** And the “spinal cord motor neurons (SMI-32+ cell count)” value (SOD1G93A mice; day 40 of treatment)?
**A.** The value was “rescued spinal cordmotor neurons”.

**Q.** And the “protection against nigro-striatal damage” value [1]?
**A.** The value was “highly protective”.

**Q.** What about the locomotor activity (reserpine-treated rat; intracerebroventricular 1, 5, 10, 20 nmol, reserpine 5 mg/kg ip) of the same compound?
**A.** The locomotor activity was “dose-dependent increase in locomotor activity”.

**Q.** What about the reserpine-induced akinesia (reserpine-treated rat; systemic 0.1, 1, 10 mg/kg ip) of the same compound?
**A.** Its reserpine-induced akinesia is “did not reverse reserpine-induced akinesia”.

**Q.** And the “tolerance to GDNF-enhancing effect” value (spinal cord GDNF levels; 28 days s.c. osmotic minipumps, 0.5-5 mg/day)?
**A.** The value was “No tolerance developed”.

**Q.** And the “spinal cord GDNF levels” value (spinal cord GDNF levels; acute 0.5, 1 or 5 mg/kg i.p., wild-type and mGlu2 knockout mice, not mGlu3 knockout)?
**A.** Its value is “enhanced spinal cord GDNF levels”.

**Q.** And the “expression of glutamate transporter GLT-1 in spinal cord” value (spinal cord GDNF levels; continuous infusion)?
**A.** The value was “enhanced the expression”.

**Q.** And the “protection of motor neurons against excitotoxic death” value (SMI-32+ motor neurons)?
**A.** Its value is “protected”.

**Q.** And the “GDNF mRNA and protein levels” value ([2]; 0.25-3 mg/kg i.p.)?
**A.** The value was “increased”.

**Q.** What about the “time of peak GDNF mRNA levels” value ([2]; after injection) of the same compound?
**A.** Its value is 3 h.

**Q.** And the striatal neuron loss (R6/2 mice; 20 mg/kg daily s.c., at 10 weeks)?
**A.** Its striatal neuron loss is “rescue of a 15-20% striatal neuron loss”.

**Q.** What about the motor function (R6/2 mice; 20 mg/kg daily s.c., distance traveled, speed, pauses, straight-line locomotion) of the same compound?
**A.** The motor function was “normalization of motor function”.

**Q.** What about the “phenotype in R6/2 mice” value (R6/2 mice; 20 mg/kg daily subcutaneous, beginning at 4 weeks) of the same compound?
**A.** The value was “dramatically improves the phenotype”.

**Q.** What about the “GDNF levels in astrocytes” value [3] of the same compound?
**A.** Its value is “enhanced GDNF levels”.

**Q.** And the “protection against nigral infusion of 6-OHDA” value ([4]; 10 mg/kg/day ip, 7 days)?
**A.** The value was “some protection”.

**Q.** What about the “protection against striatal infusion of 6-OHDA” value ([4]; 10 mg/kg/day ip, 21 days, striatum) of the same compound?
**A.** The value was “significant protection in the striatum”.

**Q.** What about the rotational behaviour ([4]; systemic 0.1, 1, 10 mg/kg ip, 1 month after unilateral 6-OHDA lesion) of the same compound?
**A.** Its rotational behaviour is “failed to effect rotational behaviour”.

**Q.** With `CC(=O)N[C@@H](CS)C(=O)O` [N-acetylcysteine] as the compound, how does the reinstatement of cocaine-seeking (cocaine-seeking in rats) read?
**A.** The reinstatement of cocaine-seeking was “attenuated”.

**Q.** And the cocaine craving (cocaine craving)?
**A.** Its cocaine craving is “attenuated cocaine craving”.

**Q.** With `COc1c(C(=O)O)cccc1-c1ccc(COc2ccc(C(=O)CC(C)(C)C)c(O)c2C)cc1` [compound 104, 3-(4-{[4-(3,3-Dimethylbutanoyl)-3-hydroxy-2-methylphenoxy]methyl}phenyl)-2-methoxybenzoic acid] as the compound, how does the EC50 (Rat mGlu3) read?
**A.** Its EC50 is 0.069 µM.

**Q.** And the EC50 (Rat mGlu2)?
**A.** The EC50 was 0.303 µM.

**Q.** And the EC50 (Human mGlu3)?
**A.** Its EC50 is 0.222 µM.

**Q.** And the EC50 (Human mGlu2)?
**A.** The EC50 was 0.19 µM.

**Q.** Which EC50 (Rat mGlu3) does the source give for `Cc1c(OCc2cnc(-c3ccc(F)c(C(=O)O)c3)cn2)ccc(C(=O)CC(C)(C)C)c1O` [compound 115, 5-(5-((4-(3,3-Dimethylbutanoyl)-3-hydroxy-2-methylphenoxy)methyl)pyrazin-2-yl)-2-fluorobenzoic acid] here?
**A.** Its EC50 is 0.043 µM.

**Q.** And the EC50 (Rat mGlu2)?
**A.** Its EC50 is 0.356 µM.

**Q.** What about the EC50 (Human mGlu3) of the same compound?
**A.** Its EC50 is 0.156 µM.

**Q.** And the EC50 (Human mGlu2)?
**A.** The EC50 was 0.355 µM.

**Q.** Which results are given for `COc1ccc(C(=O)O)cc1-c1cnc(COc2ccc(C(=O)CC(C)(C)C)c(O)c2C)cn1` [compound 116, 3-(5-((4-(3,3-Dimethylbutanoyl)-3-hydroxy-2-methylphenoxy)methyl)pyrazin-2-yl)-4-methoxybenzoic acid]?
**A.** EC50 (Rat mGlu3): 0.028 µM; EC50 (Rat mGlu2): 0.117 µM; EC50 (Human mGlu3): 0.213 µM; EC50 (Human mGlu2): 0.234 µM

**Q.** For `COc1ccc(C(=O)NC2CC2)cc1-c1cnc(COc2ccc(C(=O)CC(C)(C)C)c(O)c2C)cn1` [compound 127, N-Cyclopropyl-3-(5-((4-(3,3-dimethylbutanoyl)-3-hydroxy-2-methylphenoxy)methyl)pyrazin-2-yl)-4-methoxybenzamide], which EC50 (Rat mGlu3) is on record?
**A.** The EC50 was 0.134 µM.

**Q.** What about the EC50 (Rat mGlu2) of the same compound?
**A.** The EC50 was 0.373 µM.

**Q.** What about the EC50 (Human mGlu3) of the same compound?
**A.** The EC50 was 0.14 µM.

**Q.** And the EC50 (Human mGlu2)?
**A.** The EC50 was 0.189 µM.

**Q.** For `COc1ccc(-c2cnc(COc3ccc(C(=O)CC(C)(C)C)c(O)c3C)cn2)cc1C(=O)O` [compound 128, 5-(5-((4-(3,3-Dimethylbutanoyl)-3-hydroxy-2-methylphenoxy)methyl)pyrazin-2-yl)-2-methoxybenzoic acid], which EC50 (Rat mGlu3) is on record?
**A.** The EC50 was 0.104 µM.

**Q.** And the EC50 (Rat mGlu2)?
**A.** The EC50 was 0.43 µM.

**Q.** What about the EC50 (Human mGlu3) of the same compound?
**A.** Its EC50 is 0.148 µM.

**Q.** What about the EC50 (Human mGlu2) of the same compound?
**A.** Its EC50 is 0.297 µM.

**Q.** Which EC50 (Rat mGlu3) does the source give for `COc1cc(F)c(C(=O)O)cc1-c1cnc(COc2ccc(C(=O)CC(C)(C)C)c(O)c2C)cn1` [compound 130, 5-(5-((4-(3,3-Dimethylbutanoyl)-3-hydroxy-2-methylphenoxy)methyl)pyrazin-2-yl)-2-fluoro-4-methoxybenzoic acid] here?
**A.** Its EC50 is 0.053 µM.

**Q.** What about the EC50 (Rat mGlu2) of the same compound?
**A.** Its EC50 is 0.254 µM.

**Q.** And the EC50 (Human mGlu3)?
**A.** The EC50 was 0.031 µM.

**Q.** And the EC50 (Human mGlu2)?
**A.** The EC50 was 0.076 µM.

**Q.** With `COc1ccc(C(=O)O)cc1OCCCCOc1ccc(C(=O)CC(C)(C)C)c(O)c1` [compound 132, 3-(4-(4-(3,3-Dimethylbutanoyl)-3-hydroxyphenoxy)butoxy)-4-methoxybenzoic acid] as the compound, how does the EC50 (Rat mGlu3) read?
**A.** Its EC50 is 0.309 µM.

**Q.** And the EC50 (Rat mGlu2)?
**A.** The EC50 was 0.403 µM.

**Q.** What about the EC50 (Human mGlu3) of the same compound?
**A.** Its EC50 is 0.114 µM.

**Q.** What about the EC50 (Human mGlu2) of the same compound?
**A.** The EC50 was 0.129 µM.

**Q.** With `Cc1c(OCc2nc(-c3cccc(C(=O)O)c3)no2)ccc(C(=O)CC(C)(C)C)c1O` [compound 133, 3-(5-((4-(3,3-Dimethylbutanoyl)-3-hydroxy-2-methylphenoxy)methyl)-1,2,4-oxadiazol-3-yl)benzoic acid] as the compound, how does the EC50 (Rat mGlu3) read?
**A.** The EC50 was 0.247 µM.

**Q.** What about the EC50 (Rat mGlu2) of the same compound?
**A.** Its EC50 is 0.268 µM.

**Q.** What about the EC50 (Human mGlu3) of the same compound?
**A.** Its EC50 is 0.079 µM.

**Q.** What about the EC50 (Human mGlu2) of the same compound?
**A.** Its EC50 is 0.074 µM.

**Q.** Which results are given for `CCCC(=O)c1ccc(OCc2nc(-c3cccc(C(=O)O)c3)no2)c(C)c1O` [compound 135, 3-(5-((4-Butyryl-3-hydroxy-2-methylphenoxy)methyl)-1,2,4-oxadiazol-3-yl)benzoic acid]?
**A.** EC50 (Rat mGlu3): 0.66 µM; EC50 (Rat mGlu2): 0.106 µM; EC50 (Human mGlu3): 0.748 µM; EC50 (Human mGlu2): 0.133 µM

**Q.** What does the source list for `Cc1c(C(=O)O)cccc1-c1cccc(COc2ccc(C(=O)CC(C)(C)C)c(O)c2C)c1` [compound 160, 3′-((4-(3,3-Dimethylbutanoyl)-3-hydroxy-2-methylphenoxy)methyl)-2-methyl-[1,1′-biphenyl]-3-carboxylic acid]?
**A.** EC50 (Rat mGlu3): 0.855 µM; EC50 (Rat mGlu2): 0.092 µM; EC50 (Human mGlu3): 1.48 µM; EC50 (Human mGlu2): 0.203 µM

**Q.** For `Cc1c(OCc2cccc(-c3cccc(C(=O)NC#N)c3)c2)ccc(C(=O)CC(C)(C)C)c1O` [compound 162, N-Cyano-3′-((4-(3,3-dimethylbutanoyl)-3-hydroxy-2-methylphenoxy)methyl)-[1,1′-biphenyl]-3-carboxamide], which EC50 (Rat mGlu3) is on record?
**A.** The EC50 was 0.145 µM.

**Q.** And the EC50 (Rat mGlu2)?
**A.** The EC50 was 0.166 µM.

**Q.** What about the EC50 (Human mGlu3) of the same compound?
**A.** The EC50 was 0.593 µM.

**Q.** What about the EC50 (Human mGlu2) of the same compound?
**A.** The EC50 was 0.234 µM.
